Reference: patent EP1105395B1, “PHOTOCYCLIZED RAPAMYCINS” (priority 1998, dated 2000)
≈ marks a conversion by molar mass, not a printed value. Where two headings read alike, the source gives them in different places.

Legend:
Test in all cases: Antifungal activity, microtiter broth dilution MIC
Assay type in all cases: cell-based
[1] = tested on: Candida pseudotropicalis; details: Candida pseudotropicalis ID ATCC 28838, 35 °C, 24-48 hours
Method: (§1) Antifungal activity for the compounds of this invention was established by evaluating a representative compound of this invention (Compound I) against several strains of fungi. Briefly the following procedure was used to evaluate such activity. A 96 U-bottom microtiter plate was filled (50 µl/well) with RPMI 1640. The compounds to be evaluated were placed in appropriate wells, and serial diluted in successive wells to provide 11 dilutions. The concentrations ranged from 64 through 0.06 µg/ml. An adjusted inoculum of fungi (50 µl) was added to each well and the plates were incubated at 35 °C for 24-48 hours. […]

[2] = tested on: Aspergillus flavus; details: Aspergillus flavus ID ATCC 12963, 35 °C, 24-48 hours
Method: as §1

[3] = tested on: Candida zeylanoided; details: Candida zeylanoided ID 94-15, 35 °C, 24-48 hours
Method: as §1

[4] = tested on: Candida parapsilosis; details: 35 °C, 24-48 hours
Method: as §1

[5] = tested on: Saccharomyces cerevisiae; details: Saccharomyces cerevisiae ID ATCC 2601, 35 °C, 24-48 hours
Method: as §1

[6] = tested on: Aspergillus fumigatus; details: Aspergillus fumigatus ID ATCC 26933, 35 °C, 24-48 hours
Method: as §1

[7] = tested on: Candida krussii; details: Candida krussii ID 94-2, 35 °C, 24-48 hours
Method: as §1

[8] = tested on: Filobasidiella neoformans; details: Filobasidiella neoformans ID ATCC 7472, 35 °C, 24-48 hours
Method: as §1

[9] = tested on: Cryptococcus neoformans; details: Cryptococcus neoformans ID ATCC 90112, 35 °C, 24-48 hours
Method: as §1

[10] = tested on: Aspergillus niger; details: Aspergillus niger ID S-430, 35 °C, 24-48 hours
Method: as §1

[11] = tested on: Candida lusitaniae; details: Candida lusitaniae ID 94-3, 35 °C, 24-48 hours
Method: as §1

[12] = tested on: Candida rugosa; details: Candida rugosa ID 94-10, 35 °C, 24-48 hours
Method: as §1

[13] = tested on: Candida albicans; details: 35 °C, 24-48 hours
Method: as §1

[14] = tested on: Candida tropicalis; details: 35 °C, 24-48 hours
Method: as §1

[15] = tested on: Candida glabrata; details: Candida glabrata ID ATCC 90030, 35 °C, 24-48 hours
Method: as §1

[16] = Kluyveromyces marxianus, ATCC28838, read-out: MIC
[17] = Lodderomyces parapsilosis, ATCC90018, Candida parapsilosis ID ATCC 90018, read-out: MIC
[18] = Lodderomyces parapsilosis, Candida parapsilosis ID 94-8, read-out: MIC
[19] = Lodderomyces parapsilosis, Candida parapsilosis ID 94-9, read-out: MIC
[20] = Cryptococcus neoformans, ATCC7472, read-out: MIC
[21] = Clavispora lusitaniae, read-out: MIC
[22] = Candida albicans, ATCC90028, Candida albicans ID ATCC 90028, read-out: MIC
[23] = Candida albicans, Candida albicans ID 94-1, read-out: MIC
[24] = Candida albicans, Candida albicans ID 1063, read-out: MIC
[25] = Candida albicans, Candida albicans ID 1117, read-out: MIC
[26] = Candida albicans, Candida albicans ID C-83, read-out: MIC
[27] = Candida tropicalis ID 94-14, read-out: MIC
[28] = Nakaseomyces glabratus, ATCC90030, read-out: MIC

OC(Cn1cncn1)(Cn1cncn1)c1ccc(F)cc1F [Fluconazole]
MIC [1, 16]: ≤ 0.12 µg/mL
MIC ([2]; ATCC12963, read-out: MIC): > 16 µg/mL
MIC ([3]; read-out: MIC): ≥ 16 µg/mL
MIC [4, 17]: 0.5 µg/mL (≈ 1.63 µM)
MIC [4, 18]: 0.5 µg/mL (≈ 1.63 µM)
MIC [4, 19]: 0.5 µg/mL (≈ 1.63 µM)
MIC ([5]; ATCC2601, read-out: MIC): 8 µg/mL (≈ 26.1 µM)
MIC ([6]; ATCC26933, read-out: MIC): > 16 µg/mL
MIC ([7]; read-out: MIC): ≥ 16 µg/mL
MIC [8, 20]: 16 µg/mL (≈ 52.2 µM)
MIC ([9]; ATCC90112, read-out: MIC): 8 µg/mL (≈ 26.1 µM)
MIC ([10]; read-out: MIC): > 16 µg/mL
MIC [11, 21]: 1 µg/mL (≈ 3.27 µM)
MIC ([12]; Diutina rugosa, read-out: MIC): 2 µg/mL (≈ 6.53 µM)
MIC [13, 22]: ≥ 16 µg/mL
MIC [13, 23]: ≥ 16 µg/mL
MIC [13, 24]: 4 µg/mL (≈ 13.1 µM)
MIC [13, 25]: 8 µg/mL (≈ 26.1 µM)
MIC [13, 26]: ≥ 16 µg/mL
MIC ([14]; Candida tropicalis ID 94-13): ≥16 µg/mL
MIC [14, 27]: ≥ 16 µg/mL
MIC [15, 28]: 4 µg/mL (≈ 13.1 µM)

Clc1ccc(COC(Cn2ccnc2)c2ccc(Cl)cc2Cl)c(Cl)c1 (stereo not drawn) [Miconazole]
MIC [1, 16]: ≤ 0.12 µg/mL
MIC ([2]; ATCC12963, read-out: MIC): 0.5 µg/mL (≈ 1.2 µM)
MIC ([3]; read-out: MIC): 0.25 µg/mL (≈ 0.601 µM)
MIC [4, 17]: ≤ 0.12 µg/mL
MIC [4, 18]: 0.25 µg/mL (≈ 0.601 µM)
MIC [4, 19]: 0.5 µg/mL (≈ 1.2 µM)
MIC ([5]; ATCC2601, read-out: MIC): ≤ 0.12 µg/mL
MIC ([6]; ATCC26933, read-out: MIC): 1 µg/mL (≈ 2.4 µM)
MIC ([7]; read-out: MIC): 2 µg/mL (≈ 4.81 µM)
MIC [8, 20]: 0.25 µg/mL (≈ 0.601 µM)
MIC ([9]; ATCC90112, read-out: MIC): ≤ 0.12 µg/mL
MIC ([10]; read-out: MIC): 4 µg/mL (≈ 9.61 µM)
MIC [11, 21]: ≤ 0.12 µg/mL
MIC ([12]; Diutina rugosa, read-out: MIC): ≤ 0.12 µg/mL
MIC [13, 22]: 0.5 µg/mL (≈ 1.2 µM)
MIC [13, 23]: 8 µg/mL (≈ 19.2 µM)
MIC [13, 24]: 1 µg/mL (≈ 2.4 µM)
MIC [13, 25]: 1 µg/mL (≈ 2.4 µM)
MIC [13, 26]: 8 µg/mL (≈ 19.2 µM)
MIC ([14]; Candida tropicalis ID 94-13): 4 µg/mL (≈ 9.61 µM)
MIC [14, 27]: 4 µg/mL (≈ 9.61 µM)
MIC [15, 28]: ≤ 0.12 µg/mL

C[C@@H]1[C@H](O)[C@@H](C)/C=C/C=C/CC/C=C/C=C/C=C/C=C/C(O[C@H]2O[C@H](C)[C@@H](O)[C@H](N)[C@@H]2O)CC2O[C@](O)(CC(O)C(O)CCC(O)CC(O)CC(O)CC(=O)O[C@H]1C)CC(O)C2C(=O)O (stereo partly drawn) [Nystatin]
MIC [1]: 1 µg/mL (≈ 1.08 µM)
MIC [2]: ≥16 µg/mL
MIC [3]: 1 µg/mL (≈ 1.08 µM)
MIC ([4]; Candida parapsilosis ID 94-8): 1 µg/mL (≈ 1.08 µM)
MIC ([4]; Candida parapsilosis ID 94-9): 1 µg/mL (≈ 1.08 µM)
MIC ([4]; Candida parapsilosis ID ATCC 90018): 1 µg/mL (≈ 1.08 µM)
MIC [5]: 2 µg/mL (≈ 2.16 µM)
MIC [6]: 1 µg/mL (≈ 1.08 µM)
MIC [7]: 2 µg/mL (≈ 2.16 µM)
MIC [8]: 0.5 µg/mL (≈ 0.54 µM)
MIC [9]: 0.5 µg/mL (≈ 0.54 µM)
MIC [10]: 4 µg/mL (≈ 4.32 µM)
MIC [11]: 1 µg/mL (≈ 1.08 µM)
MIC [12]: 2 µg/mL (≈ 2.16 µM)
MIC ([13]; Candida albicans ID 94-1): 2.0 µg/mL (≈ 2.16 µM)
MIC ([13]; Candida albicans ID 1063): 2 µg/mL (≈ 2.16 µM)
MIC ([13]; Candida albicans ID 1117): 1 µg/mL (≈ 1.08 µM)
MIC ([13]; Candida albicans ID ATCC 90028): 1 µg/mL (≈ 1.08 µM)
MIC ([13]; Candida albicans ID C-83): 2 µg/mL (≈ 2.16 µM)
MIC ([14]; Candida tropicalis ID 94-13): 1 µg/mL (≈ 1.08 µM)
MIC ([14]; Candida tropicalis ID 94-14): 2 µg/mL (≈ 2.16 µM)
MIC [15]: 1 µg/mL (≈ 1.08 µM)
